From patent US20020018768A1, “Control of gene expression” (YISSUM RESEARCH DEVELOPMENT COMPANY OF THE HEBREW …, priority 1999, published 2002)

Tested on: CFTR transcripts carrying the 3849+10 kb C→T mutation in 091398K cells
Experiment: Splicing of native CFTR transcripts in 091398K nasal polyp epithelial cell line after transient transfection with splicing factors (DAC-30)
Type: cell-based
Conditions: transfection efficiency ~60%, untreated 21%
From the text: A polyp sample from a CF patient, compound heterozygous for the splicing mutation 3849+10 kb C→T and the W 1282X mutations was obtained. This patient suffered from nasal polyps and underwent nasal polypectomy. An epithelial cell line (091398K) was established from the polyp sample in collaboration with Dr. J. Yankaskas from the University of North Carolina. […] Thus a system in which the effect of splicing factors or) a native CFTR gene could be studied, was established.
Transient transfections of 091398 k cells with cellular factors were performed, using DAC-30. […] The viral factor E4-oRF3 slightly promoted exon inclusion and led to an increase in, the level of aberrantly spliced transcripts (21% to 28%). Thus, the mean effect could have reached ˜35%.

Substance: ASF/SF2: cellular SR protein splicing factor, overexpressed by transient transfection
- level of aberrantly spliced CFTR transcripts after overexpression: 11%
